Test results reported in US12605377B2, “Methods of treating fibrosis” (Endeavor Biomedicines, Inc., priority 2020, dated 2026).
Counter-ions that a name gives are not always drawn. Like-named read-outs stand apart in the source and are kept apart here.

Columns and labels:
kidney fibrosis = details: in vivo; cited from earlier work
Brain Tumor mGli1 = experiment: PK/PD GIi1 expression in Ptch−/+ × p53−/− transgenic tumor model (qRT-PCR TaqMan); format: in vivo, mouse; details: PTCH Tg, single oral dose
Source text: (§1) Following the predetermined dosing period, surrogate tissues (lung, skin, and cerebellum) from Balb/C mouse and tumor from Ptch^−/+×p53^−/− transgenic tumor model were harvested, processed, and evaluated for GIi1 expression levels using a quantitative reverse transcription polymerase chain reaction TaqMan® assay. […] Given the parallel PD effects, skin GIi1 is an appropriate PD surrogate for lung tissue GIi1.

[1] = tested on: Hh signaling activity in human Daoy cells; experiment: GIi1 transcript levels in Daoy tumor cell line stimulated with SHh-CM (branched chain DNA assay); format: cell-based; details: GIi1 mRNA, n=8, geometric mean±SE
[2] = tested on: Hh signaling activity in mouse C3H10T½ cells; experiment: Gli-Luciferase activity in C3H10T½ cells stimulated with SHh-CM; format: cell-based; details: n=8, geometric mean±SE
mGli1 = experiment: PK/PD GIi1 expression in Balb/c surrogate tissues after single oral dose (qRT-PCR TaqMan); format: in vivo, Balb/c mouse
Source text: as §1

[3] = cited from earlier work; for predominant AE causing discontinuation: comparator drugs
IPF patients = details: cited from earlier work; for effect on FVC in clinical trials (FIG. 1): IPF patients, 24 weeks (GLPG1690 12 weeks), vismodegib in combination with pirfenidone
[4] = Biopharmaceutics Classification System (BCS) class; format: physicochemical
[5] = clinical pharmacokinetics; details: human, in vivo
[6] = clinical safety and tolerability (MTD, adverse events, discontinuations)
Method: (§2) Taldegib was administered to subjects at doses of 50, 100, 200, 400 and 600 mg.

IPF = experiment: Phase 2 multi-center study of safety and efficacy in subjects with IPF; format: in vivo, human
Source text: Quantitative (% and mL) and qualitative (improved, same, worse) assessment of lung fibrosis by HRCT will be performed at Screening and Week 12. The Screening HRCT will serve as the baseline for study HRCT assessments.

[7] = tested on: α-SMA protein expression (myofibroblasts); experiment: bleomycin-induced pulmonary fibrosis model, anti-α-SMA immunohistochemistry; details: 5 mg/kg orally daily from day seven, pathology on day 21
Source text: FIG. 4B depicts the percent α-SMA positive area from the individual mice and the mean and standard deviation for the treatment groups.
A Microsprayer® Aerosolizer was used to perform intratracheal administration of bleomycin. By administering bleomycin via Microsprayer® Aerosolizer, it can be evenly exposed to the lungs and thus, develops a reproducible and uniform pathology.
Pathology of animals was examined on day 21 of the study.

GIi1 activity = details: Daoy cells, assay of U.S. Pat. No. 9,000,023; cited from earlier work
Hh = details: Zhu et al. 2019; read-out: ID50 for Hh inhibition; cited from earlier work
oral bioavailability = details: in vivo
Source text: This molecule has been in over 192 human subjects and developed initially with the intention of treating oncologic indications with a focus on lung cancer and basal cell carcinoma (BCC). Although primarily cancer patients, these studies allowed for a preliminary understanding of dose and tolerability.

GIi1 mRNA [8] = experiment: GIi1 mRNA inhibition in skin biopsies of clinical subjects; format: in vivo, human
Method: as §2

GIi1 mRNA [9] = details: vismodegib at its MTD of 150 mg; cited from earlier work
[10] = Balb/c, cerebellum, single oral dose
[11] = after sufficient step-down of dosage, if any

## CC1=C2C[C@H]3[C@@H](CC[C@@H]4C[C@H](NS(C)(=O)=O)CC[C@@]43C)[C@@H]2CC[C@@]2(C1)O[C@@H]1C[C@H](C)CN[C@H]1[C@H]2C [IPI-926]
Kidney fibrosis
  efficacy in treating kidney fibrosis: ineffective

## CN(C(=O)c1ccc(F)cc1C(F)(F)F)C1CCN(c2nnc(-c3ccnn3C)c3ccccc23)CC1 [Taladegib hydrochloride]
Brain Tumor mGli1
  Brain Tumor mGli1 TEC50: 63.0 ng/mL
  Brain Tumor mGli1 TED50: 1.0 mg/kg
[1]
  IC50: 2.22 ± 1.14 nM
[2]
  IC50: 11.2 ± 5.33 nM
mGli1; [10]
  Cerebellum mGli1 TEC50: 230 ng/mL
  Cerebellum mGli1 TED50: 2.2 mg/kg
mGli1; Balb/c, lung, single oral dose
  Lung mGli1 TEC50: 264 ± 114 ng/mL
  Lung mGli1 TED50: 2.6 ± 0.6 mg/kg
mGli1; Balb/c, skin, single oral dose
  Skin mGli1 TEC50: 84 ng/mL
  Skin mGli1 TED50: 1.1 mg/kg
mGli1; time course, single oral dose 8 mg/kg
  duration of sustained target inhibition: at least 24 hours

## CC1=C2C[C@H]3[C@@H](CC=C4C[C@@H](O)CC[C@@]43C)[C@@H]2CC[C@]12O[C@@H]1C[C@H](C)CN[C@H]1[C@H]2C [cyclopamine]
Kidney fibrosis
  efficacy in treating kidney fibrosis: ineffective

## COC(=O)c1ccc2c(c1)NC(=O)/C2=C(\Nc1ccc(N(C)C(=O)CN2CCN(C)CC2)cc1)c1ccccc1 [nintedanib]
[3]
  predominant AE causing discontinuation: diarrhea
IPF patients
  effect on FVC in clinical trials (FIG. 1): only able to slow the deterioration of FVC

## Cc1ccc(=O)n(-c2ccccc2)c1 [pirfenidone]
[3]
  predominant AE causing discontinuation: nausea
IPF patients
  effect on FVC in clinical trials (FIG. 1): only able to slow the deterioration of FVC

## CN(C(=O)c1ccc(F)cc1C(F)(F)F)C1CCN(c2nnc(-c3ccnn3C)c3ccccc23)CC1 [taladegib]
[4]
  BCS class: class II (high permeability, low solubility)
[5]; across all doses, estimated, read-out: mean half-life (t½) (converted)
  half-life: ~16 h
[5]; read-out: median tmax
  Tmax: 2 h
[6]; human, in vivo
  most commonly observed adverse events (AEs): nausea, diarrhea, dysgeusia, fatigue, decreased appetite, alopecia, vomiting, muscle spasm, constipation, weight decrease, and headache
  occurrence of muscle spasms: 40%
  predominant AE causing discontinuation: no prevalent AE
[6]; taladegib
  clinically established MTD: 400 mg
Lung fibrosis; [11]
  serious drug-related adverse events: did not experience serious drug-related adverse events
Lung fibrosis; at 24 weeks, starting at 200 mg daily
  efficacy endpoints: stabilization or improvement
IPF; [11]
  serious drug-related adverse events: did not experience serious drug-related adverse events
IPF; at 12 weeks
  efficacy endpoints: stabilization or improvement
IPF; at 12 weeks, starting at 200 mg/day
  dose limiting toxicities: no or limited dose limiting toxicities are observed
IPF; at 18 weeks
  durability of the response: durability of the response is observed
[7]
  reduction of α-SMA protein expression: approximately 40%
GIi1 activity
  IC50: ~2.4 nM
Hh
  IC50: 2.26 nM
Oral bioavailability
  bioavailability: 72 to 91%
GIi1 mRNA [8]; all dose levels tested, 50-600 mg
  pharmacological activity (BED: inhibition >50%): pharmacologically active at all dose levels tested
GIi1 mRNA [8]; dose 50 mg
  inhibition of GIi1 mRNA: greater than 80%
GIi1 mRNA [8]; dose 400 mg (MTD)
  GIi1 mRNA inhibition in skin: > 85%
GIi1 mRNA [8]; doses of 50, 100, 200, 400 and 600 mg, most patients
  inhibition of Gli in skin biopsies: > 80%

## CS(=O)(=O)c1ccc(C(=O)Nc2ccc(Cl)c(-c3ccccn3)c2)c(Cl)c1 [vismodegib]
[3]
  predominant AE causing discontinuation: muscle spasms
[3]; single arm IPF study, combination with pirfenidone, severe muscle spasms
  discontinuation of participants: over 40%
[3]; vismodegib 150, 104 patients
  Muscle Spasm Adverse Event Frequency, Grade 1: 43% (45)
  Muscle Spasm Adverse Event Frequency, Grade 2: 22% (23)
  Muscle Spasm Adverse Event Frequency, Grade 3: 6% (7)
  Muscle Spasm Adverse Event Frequency, Grade 4: 0%
[3]; vismodegib
  MTD: 150 mg
GIi1 mRNA [9]
  GIi1 mRNA inhibition: less than 50%
IPF patients
  effect on FVC in clinical trials (FIG. 1): substantial increase in FVC
IPF patients; single arm IPF study, combination with pirfenidone, after six months, average
  increase in Forced Vital Capacity (FVC): approximately 100 mL

## CCc1nc2c(C)cc(N3CCN(CC(=O)N4CC(O)C4)CC3)cn2c1N(C)c1nc(-c2ccc(F)cc2)c(C#N)s1 [zirtaxestat]
IPF patients
  effect on FVC in clinical trials (FIG. 1): small increase in FVC
